Measured values as given in patent US4343808A, “Method of inhibiting sickling of sickle erythrocytes” (The Dow Chemical Company, priority 1980, dated 1982).

Legend:
[1] = tested on: sickle erythrocytes (sickle cell blood); experiment: Reverse Erythrocyte Morphology, deoxygenation induced sickling; assay type: cell-based, human
Experimental: (§1) Blood collected from individuals with homozygous sickle cell disease, as well as normal blood, was anticoagulated with ethylenediaminetetraacetic acid (EDTA) and refrigerated until used. To portions of the blood samples were added appropriate volumes of a solution of the compound to be tested so that final concentrations of 0.0125 molar (M), 0.025 M, 0.05 M or 0.1 M were obtained, and the mixtures were incubated at 37° C. for 30 minutes. The test compounds were dissolved in saline. Appropriate volumes of saline were added to the control samples. Urea in invert sugar (UIS) at 0.05 M to 1.5 M concentrations was used as an agent capable of transforming sickled cells into normal forms and was therefore used as a positive control.
(§2) Anoxic sickling (deoxygenation) was induced by exposing sickle blood to a hydrated 95% nitrogen, 5% carbon dioxide atmosphere for 60 minutes.
(§3) After the sickling stimulus, slides were prepared. A volume of 0.2 ml of sickled cells were fixed in 1.0 ml of 3.2% glutaraldehyde in 0.1 M cacodylic buffer. Wet slides were prepared and sealed.
(§4) The slides were scored for normal cells (Typ.), atypical cells (Atyp.) and sickled cells (Sickle) on the basis of counting 300 cells per slide.
(§5) The compound 2-((4-cyanophenoxy)methyl)-2-imidazoline p-toluenesulfonate (Example 2) was tested for its ability to reverse the sickling process by first applying the hereinabove noted sickling stimuli to the sickle cell blood and then adding the test compound to the red cell suspensions.

Hb-S = Hb-S (Homo sapiens, UniProt P68871+P69905, E7V); experiment: Oxygen-Affinity Assay (whole Hb-S blood); assay type: cell-based; conditions: 10 mM, 37° C.
Experimental: The compounds described herein were tested in an "Oxygen-Affinity Assay" to measure the ability of the compound to influence the Hb-S oxygen affinity. There is a relationship between oxygen binding and Hb-S gelation and thus a measure of oxygen affinity is an index of Hb-S aggregation within the red blood cell. Hemoglobin S polymers decrease the overall oxygen affinity. Thus a return to normal of Hb-S oxygen affinity is a measure of decreased gelation.
For measurements of oxygen equilibria whole Hb-S blood was equilibrated in a tonometer at 37° C. and measurements were made in the presence of a 10 millimolar (mM) concentration of the test compound. Some of the compounds were also tested at a 5 mM concentration. The whole blood pH, oxygen tension, and blood PO2 were measured.
The percentage of oxygen saturation was plotted against the partial pressure of oxygen (mm Hg). The P50 value (oxygen tension at 50% saturation) was determined for each control and treated whole blood sample and the difference (ΔP50) between the control and treated whole blood sample noted. As used herein, a negative ΔP50 represents a change toward a normal Hb-S oxygen affinity and thus is a measure of the test compound's ability to inhibit the sickling of sickle erythrocytes.

[2] = tested on: sickle erythrocytes (sickle cell blood); experiment: Reverse Erythrocyte Morphology, chemically induced sickling (sodium metabisulfite); assay type: cell-based, human
Experimental: as §1
(§6) Sickling was induced chemically by reducing the blood samples with an equal volume of a 2% solution of sodium metabisulfite in phosphate-buffered saline for 30 minutes.
as §3, §4, §5

[3] = tested on: sickle erythrocytes (intact sickle cells); experiment: Blockade Erythrocyte Morphology, chemically induced sickling (sodium metabisulfite); assay type: cell-based, human
Experimental: (§7) The compound 2-((4-cyanophenoxy)methyl)-2-imidazoline p-toluenesulfonate (Example 2) and 2-((3-cyanophenoxy)methyl)-2-imidazoline p-toluenesulfonate (Example 4) were tested for anti-sickling activity using a suspension of intact sickle cells as follows:
as §1, §6, §3, §4

[4] = tested on: sickle erythrocytes (intact sickle cells); experiment: Blockade Erythrocyte Morphology, deoxygenation induced sickling; assay type: cell-based, human
Experimental: as §7, §1, §2, §3, §4

Toxicity (LD50) in mice = conditions: mouse, in vivo, ip, intraperitoneal injection
[5] = over the ranges tested (0.025-0.1 M)
[6] = reverse, deoxygenation, 0.025 M, vs control
[7] = reverse, deoxygenation, 0.05 M, vs control
[8] = reverse, deoxygenation, 0.1 M, vs control
[9] = reverse, chemically induced, 0.025 M, vs control
[10] = reverse, chemically induced, 0.05 M
[11] = reverse, chemically induced, 0.05 M, vs control
[12] = reverse, chemically induced, 0.1 M
[13] = reverse, chemically induced, 0.1 M, vs control
[14] = deoxygenation, 0.025 M, vs control
[15] = deoxygenation, 0.05 M, vs control
[16] = deoxygenation, 0.1 M, vs control

Compound `Cc1ccc(S(=O)(=O)O)cc1.N#Cc1ccc(OCC2=NCCN2)cc1` [Example 2, 2-((4-Cyanophenoxy)methyl)-2-imidazoline p-Toluenesulfonate] has an inhibition at 25000 µM ([1]; Homo sapiens, Erythrocyte, reverse, deoxygenation, 0.025 M, vs control, read-out: Percent Change, Sickle (sickled cells)) of 47%, an inhibition at 50000 µM ([1]; Homo sapiens, Erythrocyte, reverse, deoxygenation, 0.05 M, vs control, read-out: Percent Change, Sickle (sickled cells)) of 46% and an inhibition at 100000 µM ([1]; Homo sapiens, Erythrocyte, reverse, deoxygenation, 0.1 M, vs control, read-out: Percent Change, Sickle (sickled cells)) of 41%. For the same compound, the “reversal of sickling induced by deoxygenation” value [1, 5] was “effectively reversed sickling”, the Lysis ([1]; reverse, deoxygenation, 0.025 M) was “-” and the “Percent Change, Atyp. (atypical cells)” value [1, 6] was -22%. For the same compound, the “Percent Change, Typ. (normal cells)” value [1, 6] was “+133%”, the Lysis ([1]; reverse, deoxygenation, 0.05 M) was “-” and the “Percent Change, Atyp. (atypical cells)” value [1, 7] was -26%. For the same compound, the “Percent Change, Typ. (normal cells)” value [1, 7] was “+142%”, the Lysis ([1]; reverse, deoxygenation, 0.1 M) was “± (the appearance of some cell lysis at that particular test compound concentration)” and the “hemolysis (in words)” value ([1]; reverse, deoxygenation, 0.1 M) was “some hemolysis observed”. The “Percent Change, Atyp. (atypical cells)” value [1, 8] was -46%, the “Percent Change, Typ. (normal cells)” value [1, 8] was “+202%” and the “Δ P50 (oxygen tension at 50% saturation, difference control vs treated)” value (Hb-S) was -9.1 mm Hg. For the same compound, the inhibition at 25000 µM ([2]; Homo sapiens, Erythrocyte, reverse, chemically induced, 0.025 M, vs control, read-out: Percent Change, Sickle (sickled cells)) was 27%, the inhibition at 50000 µM ([2]; Homo sapiens, Erythrocyte, reverse, chemically induced, 0.05 M, vs control, read-out: Percent Change, Sickle (sickled cells)) was 52% and the inhibition at 100000 µM ([2]; Homo sapiens, Erythrocyte, reverse, chemically induced, 0.1 M, vs control, read-out: Percent Change, Sickle (sickled cells)) was 48%. For the same compound, the “reversal of sickling induced chemically” value [2, 5] was “effectively reversed sickling”, the Lysis ([2]; reverse, chemically induced, 0.025 M) was “-” and the “Percent Change, Atyp. (atypical cells)” value [2, 9] was -49%. For the same compound, the “Percent Change, Typ. (normal cells)” value [2, 9] was “+48%”, the Lysis [2, 10] was “± (the appearance of some cell lysis at that particular test compound concentration)” and the “hemolysis (in words)” value [2, 10] was “some hemolysis observed”. The “Percent Change, Atyp. (atypical cells)” value [2, 11] was -73%, the “Percent Change, Typ. (normal cells)” value [2, 11] was “+87%” and the Lysis [2, 12] was “± (the appearance of some cell lysis at that particular test compound concentration)”. For the same compound, the “hemolysis (in words)” value [2, 12] was “some hemolysis observed”, the “Percent Change, Atyp. (atypical cells)” value [2, 13] was -96% and the “Percent Change, Typ. (normal cells)” value [2, 13] was “+86%”. For the same compound, the “sickling inhibitory effect in the chemically induced test system” value [3] was “slightly sickling inhibitory effect”, the Lysis ([3]; 0.025 M) was “-” and the “Percent Change, Atyp. (atypical cells)” value ([3]; 0.025 M, vs control) was -14%. For the same compound, the “Percent Change, Typ. (normal cells)” value ([3]; 0.025 M, vs control) was “+56%”, the Lysis ([3]; 0.05 M) was “-” and the “Percent Change, Atyp. (atypical cells)” value ([3]; 0.05 M, vs control) was “+138%”. The “Percent Change, Typ. (normal cells)” value ([3]; 0.05 M, vs control) was “+84%”, the Lysis ([3]; 0.1 M) was “± (the appearance of some cell lysis at that particular test compound concentration)” and the “Percent Change, Atyp. (atypical cells)” value ([3]; 0.1 M, vs control) was -63%. The “Percent Change, Typ. (normal cells)” value ([3]; 0.1 M, vs control) was “+78%”, the inhibition at 25000 µM ([3]; Homo sapiens, Erythrocyte, 0.5 h, 0.025 M, vs control, read-out: Percent Change, Sickle (sickled cells)) was 27% and the inhibition at 50000 µM ([3]; Homo sapiens, Erythrocyte, 0.5 h, 0.05 M, vs control, read-out: Percent Change, Sickle (sickled cells)) was 29%. It also gave an inhibition at 100000 µM ([3]; Homo sapiens, Erythrocyte, 0.5 h, 0.1 M, vs control, read-out: Percent Change, Sickle (sickled cells)) of 32%, an inhibition at 25000 µM ([4]; Homo sapiens, Erythrocyte, deoxygenation, 0.025 M, vs control, read-out: Percent Change, Sickle (sickled cells)) of 19% and an inhibition at 50000 µM ([4]; Homo sapiens, Erythrocyte, deoxygenation, 0.05 M, vs control, read-out: Percent Change, Sickle (sickled cells)) of 27%. The inhibition at 100000 µM ([4]; Homo sapiens, Erythrocyte, deoxygenation, 0.1 M, vs control, read-out: Percent Change, Sickle (sickled cells)) was 61%, the “interference with deoxygenation induced sickling” value ([4]; Table 1) was “interfered with deoxygenation induced sickling” and the Lysis ([4]; deoxygenation, 0.025 M) was “-”. The “Percent Change, Atyp. (atypical cells)” value [4, 14] was -36%, the “Percent Change, Typ. (normal cells)” value [4, 14] was “+86%” and the Lysis ([4]; deoxygenation, 0.05 M) was “-”. For the same compound, the “cell lysis (in words)” value ([4]; deoxygenation, 0.05 M) was “without the appearance of cell lysis”, the “Percent Change, Atyp. (atypical cells)” value [4, 15] was -36% and the “Percent Change, Typ. (normal cells)” value [4, 15] was “+106%”. The Lysis ([4]; deoxygenation, 0.1 M) was “± (the appearance of some cell lysis at that particular test compound concentration)”, the “Percent Change, Atyp. (atypical cells)” value [4, 16] was -39% and the “Percent Change, Typ. (normal cells)” value [4, 16] was “+170%”. For the same compound, the LD50 (Toxicity (LD50) in mice) was 316 mg/kg.
